Experimental data published in patent US20250101041A1, “POSITIVE ALLOSTERIC MODULATORS OF THE MUSCARINIC ACETYLCHOLINE RECEPTOR M4” (Vanderbilt University, priority 2022, published 2025).

Target: T1, human mAChR M4 (Homo sapiens, UniProt P08173)
T1 construct: expressed in transfected cells; host or cells: CHO-K1 (American Type Culture Collection), stably expressing hM4 and Gqi5
T1 sequence (P08173 1-479): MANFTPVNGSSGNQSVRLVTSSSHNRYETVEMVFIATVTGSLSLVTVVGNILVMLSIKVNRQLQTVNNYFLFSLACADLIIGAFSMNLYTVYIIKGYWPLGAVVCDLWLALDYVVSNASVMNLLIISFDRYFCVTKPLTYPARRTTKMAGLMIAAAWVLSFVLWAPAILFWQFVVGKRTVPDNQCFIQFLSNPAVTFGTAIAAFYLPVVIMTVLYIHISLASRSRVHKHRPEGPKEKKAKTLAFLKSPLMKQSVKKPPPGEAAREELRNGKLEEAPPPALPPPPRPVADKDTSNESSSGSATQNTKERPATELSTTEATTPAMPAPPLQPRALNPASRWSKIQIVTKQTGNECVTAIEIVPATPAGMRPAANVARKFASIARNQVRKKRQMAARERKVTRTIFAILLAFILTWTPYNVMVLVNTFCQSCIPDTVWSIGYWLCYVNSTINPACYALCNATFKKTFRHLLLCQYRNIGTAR
Assay: mAChR M4 cell-based functional assay: calcium mobilization (Fluo-4, FDSS), potentiation of EC20 acetylcholine response in hM4-Gqi5 CHO-K1 cells
Parameters: Emax: dose or concentration left out as unconfirmed
Conditions: for Emax at 30 µM: CHO-K1, % ACh maximum at 30 μM; for Emax at 30 µM / EC50: human M4; for EC50: potentiation of EC20 acetylcholine response, calcium mobilization
Procedure, shortened: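 Readout is the fluorescence-ratio rise at 1 Hz on FDSS, with PAM activity taken as concentration-dependent enhancement of the EC20 acetylcholine response, fitted four-parameter for EC50/Emax. hM4-Gqi5 CHO-K1 cells carried Fluo-4 AM dye; test compounds (11 points, 1:3) preceded EC20 acetylcholine additions at 144 s and 230 s.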

Compound | Emax at 30 µM [%] | EC50 [nM] | Emax (CHO-K1) [%]
Cc1cc(=O)n2nc(N3CCc4ncc(-c5ccncc5)cc4C3)c(C)cc2n1 [Compound 1-240, 2,8-dimethyl-7-(3-(pyridin-4-yl)-7,8-dihydro-1,6-naphthyridin-6(5H)-yl)-4H-pyrimido[1,2-b]pyridazin-4-one] | 86 | 284 | –
Cc1cc(=O)n2nc(N3CCc4ncc(-c5cc(F)ccc5F)cc4C3)c(C)cc2n1 [Compound 1-236, 7-(3-(2,5-difluorophenyl)-7,8-dihydro-1,6-naphthyridin-6(5H)-yl)-2,8-dimethyl-4H-pyrimido[1,2-b]pyridazin-4-one] | 87 | 1600 | –
Cc1cc(=O)n2nc(N3CCc4ncc(-c5cc(F)ncc5C)cc4C3)c(C)cc2n1 [Compound 1-238, 7-(3-(2-fluoro-5-methylpyridin-4-yl)-7,8-dihydro-1,6-naphthyridin-6(5H)-yl)-2,8-dimethyl-4H-pyrimido[1,2-b]pyridazin-4-one] | 92 | 711 | –
Cc1cc2nccc(=O)n2nc1N1CCc2ncc(-c3cncn3C)cc2C1 [Compound 1-392, 8-methyl-7-(3-(1-methyl-1H-imidazol-5-yl)-7,8-dihydro-1,6-naphthyridin-6(5H)-yl)-4H-pyrimido[1,2-b] pyridazin-4-one] | 105 | 259 | –
COc1ccc(-c2cnc3c(c2)CN(c2nn4c(=O)ccnc4cc2C)CC3)c(C)n1 [Compound 1-426, 7-(3-(6-methoxy-2-methylpyridin-3-yl)-7,8-dihydro-1,6-naphthyridin-6(5H)-yl)-8-methyl-4H-pyrimido[1,2-b]pyridazin-4-one] | 84 | 348 | –
Cc1c(N2CCc3ncc(-c4cncnc4)cc3C2)nn2c(=O)ccnc2c1C [Compound 1-104, 8,9-dimethyl-7-(3-(pyrimidin-5-yl)-7,8-dihydro-1,6-naphthyridin-6(5H)-yl)-4H-pyrimido[1,2-b]pyridazin-4-one] | 90 | 696 | –
Cc1cc2nccc(=O)n2nc1N1CCc2ncc(-c3ccnc(C4CC4)c3)cc2C1 [Compound 1-54, 7-(3-(2-cyclopropylpyridin-4-yl)-7,8-dihydro-1,6-naphthyridin-6(5H)-yl)-8-methyl-4H-pyrimido[1,2-b]pyridazin-4-one] | 76 | 479 | –
Cc1cc(C)c(-c2cnc3c(c2)CN(c2nn4c(=O)ccnc4cc2C)CC3)cn1 [Compound 1-405, 7-(3-(4,6-dimethylpyridin-3-yl)-7,8-dihydro-1,6-naphthyridin-6(5H)-yl)-8-methyl-4H-pyrimido [1,2-b]pyridazin-4-one] | 61 | 259 | –
C=Cc1cnc2cc(C)c(N3CCc4ncc(C(F)(F)F)cc4C3)nn2c1=O [Compound 1-22, 8-Methyl-7-(3-(trifluoromethyl)-7,8-dihydro-1,6-naphthyridin-6(5H)-yl)-3-vinyl-4H-pyrimido[1,2-b]pyridazin-4-one] | – | 246 | 73
Cc1cc(=O)n2nc(N3CCc4ncc(-c5cnccc5C)cc4C3)c(C)cc2n1 [Compound 1-214, 2,8-dimethyl-7-(3-(4-methylpyridin-3-yl)-7,8-dihydro-1,6-naphthyridin-6(5H)-yl)-4H-pyrimido[1,2-b] pyridazin-4-one] | 82 | 139 | –
Cc1cc(C(=O)O)ncc1-c1cnc2c(c1)CN(c1nn3c(=O)ccnc3cc1C)CC2 [Compound 1-406, 4-methyl-5-(6-(8-methyl-4-oxo-4H-pyrimido[1,2-b]pyridazin-7-yl)-5,6,7,8-tetrahydro-1,6-naphthyridin-3-yl)picolinic acid] | 86 | 3970 | –
Cc1cc2nccc(=O)n2nc1N1CCc2ncc(-c3ccc(Cl)nn3)cc2C1 [Compound 1-334, 7-(3-(6-chloropyridazin-3-yl)-7,8-dihydro-1,6-naphthyridin-6(5H)-yl)-8-methyl-4H-pyrimido [1,2-b]pyridazin-4-one] | 45 | 1230 | –
Cc1cc2nccc(=O)n2nc1N1CCc2ncc(-c3ccn(C)c(=O)c3)cc2C1 [Compound 1-37, 8-methyl-7-(3-(1-methyl-2-oxo-1,2-dihydropyridin-4-yl)-7,8-dihydro-1,6-naphthyridin-6(5H)-yl)-4H-pyrimido[1,2-b]pyridazin-4-one] | 83 | 2530 | –
Cc1cc2ncc(-c3ccccc3)c(=O)n2nc1N1CCc2ncc(C(F)(F)F)cc2C1 [Compound 1-21, 8-methyl-3-phenyl-7-(3-(trifluoromethyl)-7,8-dihydro-1,6-naphthyridin-6(5H)-yl)-4H-pyrimido[1,2-b]pyridazin-4-one] | 75 | 136 | –
COc1cncc(-c2cnc3c(c2)CN(c2nn4c(=O)ccnc4cc2C)CC3)c1 [Compound 1-52, 7-(3-(5-methoxypyridin-3-yl)-7,8-dihydro-1,6-naphthyridin-6(5H)-yl)-8-methyl-4H-pyrimido[1,2-b]pyridazin-4-one] | 47 | 232 | –
COCc1cc(=O)n2nc(N3CCc4ncc(-c5cnc(Cl)cc5C)cc4C3)c(C)cc2n1 [Compound 1-357, 7-(3-(6-chloro-4-methylpyridin-3-yl)-7,8-dihydro-1,6-naphthyridin-6(5H)-yl)-2-(methoxymethyl)-8-methyl-4H-pyrimido[1,2-b]pyridazin-4-one] | 86 | 383 | –
Cc1cc(=O)n2nc(N3CCc4ncc(-c5cnccn5)cc4C3)c(C)cc2n1 [Compound 1-260, 2,8-dimethyl-7-(3-(pyrazin-2-yl)-7,8-dihydro-1,6-naphthyridin-6(5H)-yl)-4H-pyrimido[1,2-b]pyridazin-4-one] | 83 | 97 | –
COCc1cc(=O)n2nc(N3CCc4ncc(-c5cnn(C6CC6)c5)cc4C3)c(C)c(C)c2n1 [Compound 1-263, 7-(3-(1-cyclopropyl-1H-pyrazol-4-yl)-7,8-dihydro-1,6-naphthyridin-6(5H)-yl)-2-(methoxymethyl)-8,9-dimethyl-4H-pyrimido[1,2-b]pyridazin-4-one] | 86 | 96 | –
COc1ccsc1-c1cnc2c(c1)CN(c1nn3c(=O)cc(C)nc3cc1C)CC2 [Compound 1-298, 7-(3-(3-methoxythiophen-2-yl)-7,8-dihydro-1,6-naphthyridin-6(5H)-yl)-2,8-dimethyl-4H-pyrimido[1,2-b]pyridazin-4-one] | 85 | 83 | –
Cc1cc(=O)n2nc(N3CCc4ncc(-c5ccc(F)cc5C)cc4C3)c(C)c(C)c2n1 [Compound 1-274, 7-(3-(4-fluoro-2-methylphenyl)-7,8-dihydro-1,6-naphthyridin-6(5H)-yl)-2,8,9-trimethyl-4H-pyrimido[1,2-b]pyridazin-4-one] | 84 | 448 | –

Further lines, with some results ahead:

Emax at 30 µM [%] | EC50 [nM] | Compound | Emax (CHO-K1) [%]
96 | 64 | Cc1ccc2c(c1)N(c1cnc3c(c1)CN(c1nn4c(=O)ccnc4cc1C)CC3)C(C)CO2 (stereo not drawn) [Compound 2-54, 7-(3-(3,6-dimethyl-2,3-dihydro-4H-benzo[b][1,4]oxazin-4-yl)-7,8-dihydro-1,6-naphthyridin-6(5H)-yl)-8-methyl-4H-pyrimido[1,2-b]pyridazin-4-one] | –
96 | 20 | Cc1ccc(F)cc1Nc1cnc2c(c1)CN(c1nn3c(=O)ccnc3cc1C)CC2 [Compound 2-69, 7-(3-((5-fluoro-2-methylphenyl)amino)-7,8-dihydro-1,6-naphthyridin-6(5H)-yl)-8-methyl-4H-pyrimido[1,2-b]pyridazin-4-one] | –
85 | 46 | Cc1cc2nccc(=O)n2nc1N1CCc2ncc(Nc3cc(F)cc(C#N)c3)cc2C1 [Compound 2-104, 3-fluoro-5-((6-(8-methyl-4-oxo-4H-pyrimido[1,2-b]pyridazin-7-yl)-5,6,7,8-tetrahydro-1,6-naphthyridin-3-yl)amino)benzonitrile] | –
73 | 2790 | Cc1cc2nccc(=O)n2nc1N1CCc2ncc(NCc3cncn3C)cc2C1 [Compound 2-131, 8-methyl-7-(3-(((1-methyl-1H-imidazol-5-yl)methyl)amino)-7,8-dihydro-1,6-naphthyridin-6(5H)-yl)-4H-pyrimido[1,2-b]pyridazin-4-one] | –
99 | 228 | Cc1cc2nccc(=O)n2nc1N1CCc2ncc(Nc3ccc(F)nc3)cc2C1 [Compound 2-87, 7-(3-((6-fluoropyridin-3-yl)amino)-7,8-dihydro-1,6-naphthyridin-6(5H)-yl)-8-methyl-4H-pyrimido[1,2-b]pyridazin-4-one] | –
97 | 21 | Cc1cc2nccc(=O)n2nc1N1CCc2ncc(N3CCCn4nccc43)cc2C1 [Compound 2-1, 7-(3-(6,7-dihydropyrazolo[1,5-a]pyrimidin-4(5H)-yl)-7,8-dihydro-1,6-naphthyridin-6(5H)-yl)-8-methyl-4H-pyrimido[1,2-b]pyridazin-4-one] | –
82 | 165 | Cc1cc2nccc(=O)n2nc1N1CCc2ncc(Nc3c(F)ccnc3C)cc2C1 [Compound 2-114, 7-(3-((4-fluoro-2-methylpyridin-3-yl)amino)-7,8-dihydro-1,6-naphthyridin-6(5H)-yl)-8-methyl-4H-pyrimido[1,2-b]pyridazin-4-one] | –
